According to patent US10166412B2, “Skin lightening composition comprising 4-hexylresorcinol and ilomastat” (Conopco, Inc., priority 2014, dated 2019):

Key:
[1] = tested on: primary human melanocytes; assay: Melanin content assay in primary human melanocytes; assay type: cell-based; details: for inhibition at 1 µM / inhibition at 10 µM: Homo sapiens, Melanocyte, 72 hrs treatment, corrected for cell numbers, read-out: Average % inhibition of cellular melanin; for reduction of melanin content (in words): primary human melanocytes
Method: (i) Cell Cultures: • Neonatal foreskin primary human melanocytes were procured from Life Technologies, USA. Cells were grown in Medium 254 supplemented with human melanocyte growth supplement-2 and maintained at 37° C. in a humidified incubator with 5% CO2 atmosphere. The maintenance and sub culturing of cells were carried out as per the manufacturer's instructions. Cells between passages 3-6 were used for experimentation.
(ii) Active Addition: • Cells were seeded at a density of 5×10^4/well in a 24 well plate in Melanocyte Growth Media (MGM) and incubated for 24 hrs at 37° C./5% CO2. Actives were added to cells along with relevant controls. 72 hrs post active treatment, cell viability was determined using the Calcein method followed by measurement of cellular melanin content (described in below sections).
(iii) Cell Viability Assay: • Briefly, spent media was removed and cells washed once with 0.2 ml of 1× PBS-Ca—Mg solution. Fresh 1 μM calcein-AM in PBS buffer was added to each well. Plates were incubated for 30 min. at 37° C. in a CO2 incubator. Calcein fluorescence was then measured (excitation at 490 nm and emission at 520 nm) in TECAN M1000 plate reader.
(iv) Melanin Content Assay: • After Calcein measurements, cultures were rinsed with PBS (1×) and lysed for 1 hour at 60° C. in a shaker incubator using NaOH/DMSO mix. Melanin content was measured in a Tecan plate reader (405 nm filter), corrected for cell numbers and represented as % inhibition.

[2] = target: T1, Tyrosinase enzyme (Homo sapiens, UniProt P14679); assay: In vitro human tyrosinase activity assay (melanocytic lysate); assay type: biochemical
T1 construct: Primary human melanocytic lysate was used as a source of Tyrosinase enzyme; endogenous in cells; host or cells: primary human melanocytes (lysate)
T1 sequence (P14679 19-529): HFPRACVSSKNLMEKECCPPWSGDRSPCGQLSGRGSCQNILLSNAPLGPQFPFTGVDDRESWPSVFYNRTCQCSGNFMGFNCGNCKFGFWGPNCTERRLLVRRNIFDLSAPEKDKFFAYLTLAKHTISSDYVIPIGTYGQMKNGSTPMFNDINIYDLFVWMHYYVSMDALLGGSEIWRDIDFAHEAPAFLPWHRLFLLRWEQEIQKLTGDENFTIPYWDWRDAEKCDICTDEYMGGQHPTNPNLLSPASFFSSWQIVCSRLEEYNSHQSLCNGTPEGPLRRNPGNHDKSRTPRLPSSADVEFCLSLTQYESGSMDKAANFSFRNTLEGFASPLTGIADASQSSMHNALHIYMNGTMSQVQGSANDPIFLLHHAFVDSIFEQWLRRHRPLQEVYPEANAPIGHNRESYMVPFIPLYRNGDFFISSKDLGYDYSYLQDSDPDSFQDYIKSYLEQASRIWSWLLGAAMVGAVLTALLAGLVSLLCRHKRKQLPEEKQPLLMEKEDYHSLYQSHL
Method: (v) In Vitro Human Tyrosinase Activity Assay: • Primary human melanocytic lysate was used as a source of Tyrosinase enzyme. Human melanocytic lysate and test actives (at different concentrations) were incubated together for 15 mins, prior to addition of Tyrosine/DOPA substrate mix. Assay plate was then incubated at 37° C. for ˜14-16 hrs. Optical Density was measured at 405 nm and % inhibition of Tyrosinase activity calculated. Results

`CCCCCCc1ccc(O)cc1O` [4-HR, 4-Hexylresorcinol] was tested, and the inhibition at 1 µM [1] was 11%, the inhibition at 10 µM [1] was 38% and the “reduction of melanin content (in words)” value ([1]; concentration not specified) was “significant reduction in melanin content”. For the same molecule, the “direct modulation / inhibition of Tyrosinase enzyme activity (in words)” value [2] was “through direct modulation of Tyrosinase enzyme activity”, the inhibition at 1 µM ([2]; 1 μM) was 28% and the inhibition at 5 µM ([2]; 5 μM) was 55%. The inhibition at 10 µM ([2]; 10 μM) was 78% and the inhibition at 50 µM ([2]; 50 μM) was 78%.

With `CNC(=O)[C@H](Cc1c[nH]c2ccccc12)NC(=O)[C@@H](CC(=O)NO)CC(C)C` [Galardin, (R)-N4-Hydroxy-N1-[(S)-2-(1H-indol-3-yl)-1-methylcarbamoyl-ethyl]-2-isobutyl-succinamide] the inhibition at 1 µM [1] was 7%, the inhibition at 10 µM [1] was 17% and the “reduction of melanin content (in words)” value ([1]; at 1 μM) was “no reduction”. The “reduction of melanin content (in words)” value ([1]; at 10 μM) was “modest reduction”.
